Legend:
Assay in all cases: relative viability (nuclei count vs DMSO), 5 days (fraction); higher = more cells survive
NCI-H1793 = tested on: NCI-H1793
In short: (§1)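 Lung cancer cell lines in 1536-well plates got either a single drug or a fixed anchor-drug dose together with five library-drug doses (not always all listed) in √10 steps, by pin tool, on the day after seeding. Nuclei were counted after 5 days, and relative viability is the treated-to-vehicle ratio of nuclei counts. Values are medians of duplicate plates.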

NCI-H1944 = tested on: NCI-H1944
In short: as §1

NCI-H2087 = tested on: NCI-H2087
In short: as §1

NCI-H2228 = tested on: NCI-H2228
In short: as §1

NCI-H2405 = tested on: NCI-H2405
In short: as §1

NCI-H3122 = tested on: NCI-H3122
In short: as §1

NCI-H322M = tested on: NCI-H322M
In short: as §1

NCI-H647 = tested on: NCI-H647
In short: as §1

NCI-H727 = tested on: NCI-H727
In short: as §1

RERF-LC-KJ = tested on: RERF-LC-KJ
In short: as §1

SK-LU-1 = tested on: SK-LU-1
In short: as §1

CC(=O)O[C@@]12CO[C@@H]1C[C@H](O)[C@@]1(C)C(=O)[C@H](O)C3=C(C)[C@@H](OC(=O)[C@H](O)[C@@H](NC(=O)OC(C)(C)C)c4ccccc4)C[C@@](O)([C@@H](OC(=O)c4ccccc4)[C@H]21)C3(C)C [Docetaxel] + Cc1nc(Nc2ncc(C(=O)Nc3c(C)cccc3Cl)s2)cc(N2CCN(CCO)CC2)n1 [Dasatinib] (partner 0.075 µM)
relative viability (NCI-H1793; first compound 0.0002 µM): 0.351
relative viability (NCI-H1793; first compound 0.000632 µM): 0.345
relative viability (NCI-H1793; first compound 0.002 µM): 0.279
relative viability (NCI-H1793; first compound 0.006325 µM): 0.175
relative viability (NCI-H1793; first compound 0.02 µM): 0.16
relative viability (NCI-H1944; first compound 0.0002 µM): 0.216
relative viability (NCI-H1944; first compound 0.000632 µM): 0.228
relative viability (NCI-H1944; first compound 0.002 µM): 0.204
relative viability (NCI-H1944; first compound 0.006325 µM): 0.178
relative viability (NCI-H1944; first compound 0.02 µM): 0.105
relative viability (NCI-H2087; first compound 0.0002 µM): 0.809
relative viability (NCI-H2087; first compound 0.000632 µM): 0.371
relative viability (NCI-H2087; first compound 0.002 µM): 0.171
relative viability (NCI-H2087; first compound 0.006325 µM): 0.139
relative viability (NCI-H2087; first compound 0.02 µM): 0.102
relative viability (NCI-H2228; first compound 0.0002 µM): 0.429
relative viability (NCI-H2228; first compound 0.000632 µM): 0.151
relative viability (NCI-H2228; first compound 0.002 µM): 0.12
relative viability (NCI-H2228; first compound 0.006325 µM): 0.146
relative viability (NCI-H2228; first compound 0.02 µM): 0.0836
relative viability (NCI-H2405; first compound 0.0002 µM): 0.2
relative viability (NCI-H2405; first compound 0.000632 µM): 0.178
relative viability (NCI-H2405; first compound 0.002 µM): 0.199
relative viability (NCI-H2405; first compound 0.006325 µM): 0.149
relative viability (NCI-H2405; first compound 0.02 µM): 0.14
relative viability (NCI-H3122; first compound 0.0002 µM): 0.822
relative viability (NCI-H3122; first compound 0.000632 µM): 0.694
relative viability (NCI-H3122; first compound 0.002 µM): 0.508
relative viability (NCI-H3122; first compound 0.006325 µM): 0.102
relative viability (NCI-H3122; first compound 0.02 µM): 0.078
relative viability (NCI-H322M; first compound 0.0002 µM): 0.242
relative viability (NCI-H322M; first compound 0.000632 µM): 0.251
relative viability (NCI-H322M; first compound 0.002 µM): 0.372
relative viability (NCI-H322M; first compound 0.006325 µM): 0.406
relative viability (NCI-H322M; first compound 0.02 µM): 0.346
relative viability (NCI-H647; first compound 0.0002 µM): 0.137
relative viability (NCI-H647; first compound 0.000632 µM): 0.132
relative viability (NCI-H647; first compound 0.002 µM): 0.0799
relative viability (NCI-H647; first compound 0.006325 µM): 0.0795
relative viability (NCI-H647; first compound 0.02 µM): 0.0407
relative viability (NCI-H727; first compound 0.0002 µM): 0.367
relative viability (NCI-H727; first compound 0.000632 µM): 0.326
relative viability (NCI-H727; first compound 0.002 µM): 0.272
relative viability (NCI-H727; first compound 0.006325 µM): 0.395
relative viability (NCI-H727; first compound 0.02 µM): 0.276
relative viability (RERF-LC-KJ; first compound 0.0002 µM): 0.754
relative viability (RERF-LC-KJ; first compound 0.000632 µM): 0.586
relative viability (RERF-LC-KJ; first compound 0.002 µM): 0.295
relative viability (RERF-LC-KJ; first compound 0.006325 µM): 0.264
relative viability (RERF-LC-KJ; first compound 0.02 µM): 0.155
relative viability (SK-LU-1; first compound 0.0002 µM): 0.175
relative viability (SK-LU-1; first compound 0.000632 µM): 0.156
relative viability (SK-LU-1; first compound 0.006325 µM): 0.122
relative viability (SK-LU-1; first compound 0.02 µM): 0.132
